Results reported in patent publication US20020103136A1, “Conjugates useful in the treatment of prostate cancer” (priority 1998, published 2002).

Assays:
[1] = test system: LNCap prostate tumor cells; assay: In vitro cytotoxicity, Alamar Blue assay, LNCaP cell kill in 72 hrs; format: cell-based; conditions: Table 3, 3 days, TFA salt of cytotoxic agent unless otherwise indicated, read-out: LNCaP Cell Kill in 72 HRS EC5O
Method: (§1) The cytotoxicities of the vinca alkaloid derivatives, prepared as described in Example 1, and the cleaveable oligopeptide-vinca drug conjugates, prepared as described in Examples 2 and 2A, against a line of cells which is known to be killed by unmodified vinca drug was assessed with an Alamar Blue assay. Specifically, cell cultures of LNCap prostate tumor cells, Colo320DM cells (also designated C320), T24 bladder carcinoma cells or T47D breast carcinoma cells in 96 well plates was diluted with medium containing various concentrations of a given conjugate (final plate well volume of 200 μl). The cells were incubated for 3 days at 37° C., 20 μl of Alamar Blue is added to the assay well. The cells were further incubated and the assay plates were read on a EL-310 ELISA reader at the dual wavelengths of 570 and 600 nm at 4 and 7 hours after addition of Alamar Blue. Relative percentage viability at the various concentration of conjugate tested was then calculated versus control (no cytotoxic agent or conjugate) cultures. Unless otherwise indicated, the TFA salt of the cytotoxic agent and the acetate salt of the conjugate were tested.

[2] = test system: Colo320DM cells (also designated C320); assay: In vitro cytotoxicity, Alamar Blue assay, Colo320DM cells; format: cell-based; conditions: Table 3, value in parentheses, TFA salt unless otherwise indicated, read-out: Cell Kill in 72 HRS EC5O, Colo320DM
Method: as §1

`CC[C@]1(O)C[C@@H]2CN(CCc3c([nH]c4ccccc34)[C@@](C(=O)OC)(c3cc4c(cc3OC)N(C)[C@H]3[C@@](O)(C(=O)N5CCCC(O)C5)[C@H](O)[C@]5(CC)C=CCN6CC[C@]43[C@@H]65)C2)C1` (single isomer, unassigned; isomer a) [3-hydroxyl-piperidine-(dAc)-VIN, isomer A] showed an EC50 [1] of 500 nM and an EC50 [2] of 500 nM.

With `CC[C@]1(O)C[C@@H]2CN(CCc3c([nH]c4ccccc34)[C@@](C(=O)OC)(c3cc4c(cc3OC)N(C)[C@H]3[C@@](O)(C(=O)NC(C)C(O)C5CCCCC5)[C@H](O)[C@]5(CC)C=CCN6CC[C@]43[C@@H]65)C2)C1` (single isomer, unassigned; isomer a) [(3-cyclohexyl-3-hydroxyl-2-propylaminol)-(dAc)-VIN isomer A] the EC50 [1] was 300 nM and the EC50 [2] was 500 nM.

Compound `CC[C@]1(O)C[C@@H]2CN(CCc3c([nH]c4ccccc34)[C@@](C(=O)OC)(c3cc4c(cc3OC)N(C)[C@H]3[C@@](O)(C(=O)NC5CCCCC5O)[C@H](O)[C@]5(CC)C=CCN6CC[C@]43[C@@H]65)C2)C1` (single isomer, unassigned; isomer a) [(trans-2-hydroxyl)cyclohexylamine-(dAc)-VIN, Isomer A] has an EC50 [1] of 100 nM and an EC50 [2] of 200 nM.

`CCC1(O)CC2CN(CCc3c([nH]c4ccccc34)C(C(=O)OC)(c3cc4c(cc3OC)N(C)C3C(O)(C(=O)NC(C)C(O)c5ccccc5)C(O)C5(CC)C=CCN6CCC43C65)C2)C1` (single isomer, unassigned; isomer a) [norephedrine-(dAc)-VIN, isomer A] showed an EC50 [1] of 3000 nM and an EC50 [2] of 3000 nM.

In the case of `CC[C@]1(O)C[C@@H]2CN(CCc3c([nH]c4ccccc34)[C@@](C(=O)OC)(c3cc4c(cc3OC)N(C)[C@H]3[C@@](O)(C(=O)N5CCCC(O)C5)[C@H](O)[C@]5(CC)C=CCN6CC[C@]43[C@@H]65)C2)C1` (single isomer, unassigned; isomer b) [3-hydroxyl-piperidine-(dAc)-VIN, isomer B], the EC50 [1] is reported as 500 nM.

`CC[C@]1(O)C[C@@H]2CN(CCc3c([nH]c4ccccc34)[C@@](C(=O)OC)(c3cc4c(cc3OC)N(C)[C@H]3[C@@](O)(C(=O)NC(C)C(O)C5CCCCC5)[C@H](O)[C@]5(CC)C=CCN6CC[C@]43[C@@H]65)C2)C1` (single isomer, unassigned; isomer b) [(3-cyclohexyl-3-hydroxyl-2-propylaminol)-(dAc)-VIN isomer B] gave an EC50 [1] of 1200 nM and an EC50 [2] of 800 nM.

`CC[C@]1(O)C[C@@H]2CN(CCc3c([nH]c4ccccc34)[C@@](C(=O)OC)(c3cc4c(cc3OC)N(C)[C@H]3[C@@](O)(C(=O)NC5CCCCC5O)[C@H](O)[C@]5(CC)C=CCN6CC[C@]43[C@@H]65)C2)C1` (single isomer, unassigned; isomer b) [(trans-2-hydroxyl)cyclohexylamino-(dAc)-VIN, Isomer B] gave an EC50 [1] of 800 nM and an EC50 [2] of 800 nM.

`CCC1(O)CC2CN(CCc3c([nH]c4ccccc34)C(C(=O)OC)(c3cc4c(cc3OC)N(C)C3C(O)(C(=O)NC(C)C(O)c5ccccc5)C(O)C5(CC)C=CCN6CCC43C65)C2)C1` (single isomer, unassigned; isomer b) [norephedrine-(dAc)-VIN, isomer B] was tested, and the EC50 [1] was 200 nM and the EC50 [2] was 400 nM.

In the case of `CC[C@]1(O)C[C@@H]2CN(CCc3c([nH]c4ccccc34)[C@@](C(=O)OC)(c3cc4c(cc3OC)N(C)[C@H]3[C@@](O)(C(=O)NC(c5ccccc5)C(O)c5ccccc5)[C@H](O)[C@]5(CC)C=CCN6CC[C@]43[C@@H]65)C2)C1` (some centres unmarked) [1,2-diPhenylethanolamino-(dAc)-VIN], the EC50 [1] is reported as 2200 nM and the EC50 [2] is reported as 8900 nM.

With `CC[C@]1(O)C[C@@H]2CN(CCc3c([nH]c4ccccc34)[C@@](C(=O)OC)(c3cc4c(cc3OC)N(C)[C@H]3[C@@](O)(C(=O)NCC5(O)CCCCC5)[C@H](O)[C@]5(CC)C=CCN6CC[C@]43[C@@H]65)C2)C1` [1-hydroxylcyclohexylmethyamino-(dAc)-VIN] the EC50 [1] was 500 nM and the EC50 [2] was 15800 nM.

With `CCC(CO)NC(=O)[C@@]1(O)[C@H](O)[C@]2(CC)C=CCN3CC[C@@]4(c5cc([C@@]6(C(=O)OC)C[C@H]7CN(CCc8c6[nH]c6ccccc86)C[C@](O)(CC)C7)c(OC)cc5N(C)[C@@H]14)[C@@H]32` (some centres unmarked) [2-Aminobutanol-(dAc)-VIN] the EC50 [1] was 2900 nM and the EC50 [2] was 7100 nM.

`CC[C@]1(O)C[C@@H]2CN(CCc3c([nH]c4ccccc34)[C@@](C(=O)OC)(c3cc4c(cc3OC)N(C)[C@H]3[C@@](O)(C(=O)NCC(C)O)[C@H](O)[C@]5(CC)C=CCN6CC[C@]43[C@@H]65)C2)C1` (some centres unmarked) [2-hydroxylpropylamino-(dAc)-VIN] was tested, and the EC50 [1] was 1200 nM and the EC50 [2] was 2900 nM.

Work on `CC[C@]1(O)C[C@@H]2CN(CCc3c([nH]c4ccccc34)[C@@](C(=O)OC)(c3cc4c(cc3OC)N(C)[C@H]3[C@@](O)(C(=O)N5CCC(O)C5)[C@H](O)[C@]5(CC)C=CCN6CC[C@]43[C@@H]65)C2)C1` (some centres unmarked) [3-hydroxylpyrrolidine-(dAc)-VIN] yielded an EC50 [1] of 200 nM and an EC50 [2] of 1500 nM.

Compound `CCC1(O)CC2CN(CCc3c([nH]c4ccccc34)C(C(=O)OC)(c3cc4c(cc3OC)N(C)C3C(O)(C(=O)NC(C)C(O)c5cccc(OC)c5)C(O)C5(CC)C=CCN6CCC43C65)C2)C1` (centres unmarked) [3-methoxy-norephedrine-(dAc)-VIN] has an EC50 [1] of 1800 nM and an EC50 [2] of 5100 nM.

Work on `CCC1(O)CC2CN(CCc3c([nH]c4ccccc34)C(C(=O)OC)(c3cc4c(cc3OC)N(C)C3C(O)(C(=O)N5CCC(O)CC5)C(O)C5(CC)C=CCN6CCC43C65)C2)C1` (centres unmarked) [4-hydroxylpiperidine-(dAc)-VIN] yielded an EC50 [1] of 200 nM and an EC50 [2] of 800 nM.

Compound `CC[C@]1(O)C[C@@H]2CN(CCc3c([nH]c4ccccc34)[C@@](C(=O)OC)(c3cc4c(cc3OC)N(C)[C@H]3[C@@](O)(C(=O)OC)[C@H](O)[C@]5(CC)C=CCN6CC[C@]43[C@@H]65)C2)C1` [(dAc)-VINBLASTINE, desacetylvinblastine, reference compound] has an EC50 [1] of 300 nM and an EC50 [2] of 500 nM.

For `CC[C@]1(O)C[C@@H]2CN(CCc3c([nH]c4ccccc34)[C@@](C(=O)OC)(c3cc4c(cc3OC)N(C)[C@H]3[C@@](O)(C(=O)N[C@H](CO)C(C)C)[C@H](O)[C@]5(CC)C=CCN6CC[C@]43[C@@H]65)C2)C1` [L-Valinol-(dAc)-VIN], the EC50 [1] was 400 nM and the EC50 [2] was 800 nM.

`CC[C@]1(O)C[C@@H]2CN(CCc3c([nH]c4ccccc34)[C@@](C(=O)OC)(c3cc4c(cc3OC)N(C)[C@H]3[C@@](O)(C(=O)N[C@H](CO)CC5CCCCC5)[C@H](O)[C@]5(CC)C=CCN6CC[C@]43[C@@H]65)C2)C1` [L-cyclolhexyl-alaninol-(dAc)-VIN] showed an EC50 [1] of 1000 nM and an EC50 [2] of 2000 nM.

For `CCOC(=O)[C@H](CC1CC1)NC(=O)[C@@]1(O)[C@H](O)[C@]2(CC)C=CCN3CC[C@@]4(c5cc([C@@]6(C(=O)OC)C[C@H]7CN(CCc8c6[nH]c6ccccc86)C[C@](O)(CC)C7)c(OC)cc5N(C)[C@@H]14)[C@@H]32` [L-cyclopropyl-alainine-OEt-(dAc)-VIN], the EC50 [1] was 1400 nM and the EC50 [2] was 1000 nM.

`CC[C@H](C)[C@@H](CO)NC(=O)[C@@]1(O)[C@H](O)[C@]2(CC)C=CCN3CC[C@@]4(c5cc([C@@]6(C(=O)OC)C[C@H]7CN(CCc8c6[nH]c6ccccc86)C[C@](O)(CC)C7)c(OC)cc5N(C)[C@@H]14)[C@@H]32` [L-isoleucinol-(dAc)-VIN] was tested, and the EC50 [1] was 900 nM and the EC50 [2] was 1700 nM.

For `CC[C@]1(O)C[C@@H]2CN(CCc3c([nH]c4ccccc34)[C@@](C(=O)OC)(c3cc4c(cc3OC)N(C)[C@H]3[C@@](O)(C(=O)N[C@H](CO)CC(C)C)[C@H](O)[C@]5(CC)C=CCN6CC[C@]43[C@@H]65)C2)C1` [L-leucinol-(dAc)-VIN], the EC50 [1] was 700 nM and the EC50 [2] was 2000 nM.
